In general, IC50 refers to the concentration that gives 50% inhibition. Broadly, the inhibition is the percentage by which the read-out fell short of the control.

We go through 26 compounds from PMC8968748 (Journal of medicinal chemistry, 2021).

One data set deals with IDH1 R132H (Homo sapiens, UniProt O75874, R132H). The data set can be described thus: diaphorase/resazurin-coupled mIDH1 R132H enzyme assay. Format: biochemical. The conditions noted are these: for fold improvement in potency compared to analog 70: mIDH1 R132H, relative to 70; for IDH1 R132H IC50 Fold improvement over 87: relative to compound 87; for mIDH1 inhibitory activity: R132H and R132C mIDH1, Table 2 is an image; for IC50: average of N = 3, reported only where ≥75% inhibition at 38 μM.

Data set [1] can be described thus: Parallel artificial membrane permeability assay. Format: in vitro ADME. The conditions noted are these: pH 7.4.
The next data set addresses IDH1 R132C (Homo sapiens, UniProt O75874, R132C). The data set can be described thus: diaphorase/resazurin-coupled mIDH1 R132C enzyme assay. The data set is classed as biochemical. The conditions noted are these: for IDH1 R132C IC50 Fold improvement over 87: relative to compound 87. A general note: The colour change of resazurin is a common sign of viable cells or microbes.

Where two headings read alike, the source gives them in different places.

Sequence of IDH1 R132C (O75874 whole entry R132C): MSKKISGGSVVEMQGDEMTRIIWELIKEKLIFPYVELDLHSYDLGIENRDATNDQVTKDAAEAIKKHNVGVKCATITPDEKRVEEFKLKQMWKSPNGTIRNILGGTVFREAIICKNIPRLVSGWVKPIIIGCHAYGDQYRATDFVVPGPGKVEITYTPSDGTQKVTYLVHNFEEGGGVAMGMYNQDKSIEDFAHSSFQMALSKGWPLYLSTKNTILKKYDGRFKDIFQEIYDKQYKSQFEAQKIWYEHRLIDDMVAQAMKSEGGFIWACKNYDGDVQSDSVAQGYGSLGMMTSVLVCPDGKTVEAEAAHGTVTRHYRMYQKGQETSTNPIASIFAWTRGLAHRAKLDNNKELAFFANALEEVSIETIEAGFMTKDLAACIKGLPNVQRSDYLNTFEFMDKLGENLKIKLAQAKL
Sequence of IDH1 R132H (O75874 whole entry R132H): as the sequence (O75874 whole entry R132C) above, with C132H counted along it

Take `CCc1cccc(CC)c1-n1c(C)c(C(=O)NCCO)cc(-c2nc(-c3ccc(Cl)cc3)cs2)c1=O` [Compound 75, 5-(4-(4-Chlorophenyl)thiazol-2-yl)-1-(2,6-diethylphenyl)-N-(2-hydroxyethyl)-2-methyl-6-oxo-1,6-dihydropyridine-3-carboxamide]: the “fold improvement in potency compared to analog 70” value on IDH1 R132H came out at 3 fold.

Consider `CCc1cccc(CC)c1-n1c(C=C(C)C)c(C(=O)N2CCNCC2C)cc(-c2nc(-c3ccc(Cl)cc3)cs2)c1=O` (stereo not drawn) [Compound 100, 3-(4-(4-Chlorophenyl)thiazol-2-yl)-1-(2,6-diethylphenyl)-5-(2-methylpiperazine-1-carbonyl)-6-(2-methylprop-1-en-1-yl)pyridin-2(1H)-one], for which, in data set [1], the “PAMPA (10^−6 cm/s)” value was 40 10^−6 cm/s.

For `CCc1cccc(CC)c1-n1c(CC2CC2)c(C(=O)N2CCNCC2)cc(-c2nc(-c3ccc(Cl)cc3)cs2)c1=O` [Compound 93, 3-(4-(4-Chlorophenyl)thiazol-2-yl)-6-(cyclopropylmethyl)-1-(2,6-diethylphenyl)-5-(piperazine-1-carbonyl)pyridin-2(1H)-one], the “IDH1 R132H IC50 Fold improvement over 87” value on IDH1 R132H is recorded as 3.8 fold. Also, the “IDH1 R132C IC50 Fold improvement over 87” value at IDH1 R132C came out at 31 fold. The “PAMPA (10^−6 cm/s)” value in data set [1] was 43 10^−6 cm/s.

Regarding `CCc1cccc(CC)c1-n1c(CC2CCNC2)c(C(=O)N2CCNCC2)cc(-c2nc(-c3ccc(Cl)cc3)cs2)c1=O` (stereo not drawn) [Compound 98, 3-(4-(4-Chlorophenyl)thiazol-2-yl)-1-(2,6-diethylphenyl)-5-(piperazine-1-carbonyl)-6-(pyrrolidin-3-ylmethyl)pyridin-2(1H)-one], the “IDH1 R132H IC50 Fold improvement over 87” value at IDH1 R132H amounted to 2.8 fold. Further, the “IDH1 R132C IC50 Fold improvement over 87” value on IDH1 R132C is 12 fold. Besides, the “PAMPA (10^−6 cm/s)” value in data set [1] was 24 10^−6 cm/s.

Consider `CCc1cccc(CC)c1-n1c(C=C(C)C)c(C(=O)N2CCNC(C(=O)O)C2)cc(-c2nc(-c3ccc(Cl)cc3)cs2)c1=O` (stereo not drawn) [Compound 108, 4-(5-(4-(4-Chlorophenyl)thiazol-2-yl)-1-(2,6-diethylphenyl)-2-(2-methylprop-1-en-1-yl)-6-oxo-1,6-dihydropyridine-3-carbonyl)piperazine-2-carboxylic acid], for which the “PAMPA (10^−6 cm/s)” value in data set [1] is <1 10^−6 cm/s.

Take `CCCc1c(C(=O)N2CCNCC2)cc(-c2nc(-c3ccc(Cl)cc3)cs2)c(=O)n1-c1c(CC)cccc1CC` [Compound 89, 3-(4-(4-Chlorophenyl)thiazol-2-yl)-1-(2,6-diethylphenyl)-5-(piperazine-1-carbonyl)-6-propylpyridin-2(1H)-one]: the “IDH1 R132H IC50 Fold improvement over 87” value on IDH1 R132H turned out to be 2.8 fold. Moreover, the “IDH1 R132C IC50 Fold improvement over 87” value at IDH1 R132C came out at 15 fold. Moreover, the “PAMPA (10^−6 cm/s)” value in data set [1] is 134 10^−6 cm/s.

Regarding `COc1ccc(OC)c(-n2cccc(-c3nc(-c4ccc(Cl)cc4)cs3)c2=O)c1` [Compound 2, 3-(4-(4-Chlorophenyl)thiazol-2-yl)-1-(2,5-dimethoxyphenyl)pyridin-2(1H)-one], the “mIDH1 inhibitory activity” value at IDH1 R132H is “completely inactive”.

As for `CCc1cccc(CC)c1-n1c(C=C(C)C)c(C(=O)N2C3CCC2CNC3)cc(-c2nc(-c3ccc(Cl)cc3)cs2)c1=O` [Compound 112, 5-(3,8-Diazabicyclo[3.2.1]octane-8-carbonyl)-3-(4-(4-chlorophenyl)thiazol-2-yl)-1-(2,6-diethylphenyl)-6-(2-methylprop-1-en-1-yl)pyridin-2(1H)-one], the “PAMPA (10^−6 cm/s)” value in data set [1] (PAMPA, 30 min, 0.05 mM) is on record as 99 10^−6 cm/s.

In the case of `CCc1cccc(CC)c1-n1c(CC(C)C)c(C(=O)N2CCNCC2)cc(-c2nc(-c3ccc(Cl)cc3)cs2)c1=O` [Compound 91, 3-(4-(4-Chlorophenyl)thiazol-2-yl)-1-(2,6-diethylphenyl)-6-isobutyl-5-(piperazine-1-carbonyl)pyridin-2(1H)-one], at IDH1 R132H, the “IDH1 R132H IC50 Fold improvement over 87” value is reported as 1.9 fold. Moreover, the “IDH1 R132C IC50 Fold improvement over 87” value on IDH1 R132C amounted to 13 fold. Also, the “PAMPA (10^−6 cm/s)” value in data set [1] was 16 10^−6 cm/s.

Regarding `CC(C)=Cc1c(C(=O)N2CCNCC2)cc(-c2nc(-c3ccc(Cl)cc3)cs2)c(=O)n1-c1ccccc1` [Compound 113, 3-(4-(4-Chlorophenyl)thiazol-2-yl)-6-(2-methylprop-1-en-1-yl)-1-phenyl-5-(piperazine-1-carbonyl)pyridin-2(1H)-one], the “fold drop in R132H potency” value at IDH1 R132H (relative to 92) stood at 7.5 fold. For the same compound, the “fold drop in R132C potency” value on IDH1 R132C (relative to 92) worked out at 55 fold.

Consider `COc1ccc(OC)c(-n2c3c(cc(-c4cccc(-c5ccc(Cl)cc5)c4)c2=O)C(=O)CC(C)(C)C3)c1` [Compound 23, 3-(4’-Chloro-[1,1’-biphenyl]-3-yl)-1-(2,5-dimethoxyphenyl)-7,7-dimethyl-7,8-dihydroquinoline-2,5(1H,6H)-dione], for which the “mIDH1 inhibitory activity” value on IDH1 R132H was “complete loss in mIDH1 inhibitory activity”.

“3-(4-(4-Chlorophenyl)thiazol-2-yl)-1-(2-ethyl-6-methylphenyl)-6-(2-methylprop-1-en-1-yl)-5-(piperazine-1-carbonyl)pyridin-2(1H)-one [Compound 115]”: the half-maximal inhibitory concentration (IC50) on IDH1 R132H (read-out: IDH1 R132H IC50(μM) ± SD) was 0.27 µM.

As for `CCc1ccc(OC)cc1-n1c(C=C(C)C)c(C(=O)N2CCNCC2)cc(-c2nc(-c3ccc(Cl)cc3)cs2)c1=O` (mixture of isomers) [Compound 118, 3-(4-(4-Chlorophenyl)thiazol-2-yl)-1-(2-ethyl-5-methoxyphenyl)-6-(2-methylprop-1-en-1-yl)-5-(piperazine-1-carbonyl)pyridin-2(1H)-one], in data set [1], the “PAMPA (10^−6 cm/s)” value was 549 10^−6 cm/s.

Turning to `CCc1cccc(CC)c1-n1c(C=C(C)C)c(C(=O)N2CCNC3(CC3)C2)cc(-c2nc(-c3ccc(Cl)cc3)cs2)c1=O` [Compound 103, 3-(4-(4-Chlorophenyl)thiazol-2-yl)-1-(2,6-diethylphenyl)-6-(2-methylprop-1-en-1-yl)-5-(4,7-diazaspiro[2.5]octane-7-carbonyl)pyridin-2(1H)-one], the “PAMPA (10^−6 cm/s)” value in data set [1] is on record as 48 10^−6 cm/s.

As for `CCc1cccc(CC)c1-n1c(C)c(C(=O)NCCN)cc(-c2nc(-c3ccc(Cl)cc3)cs2)c1=O` [Compound 78, N-(2-Aminoethyl)-5-(4-(4-chlorophenyl)thiazol-2-yl)-1-(2,6-diethylphenyl)-2-methyl-6-oxo-1,6-dihydropyridine-3-carboxamide], on IDH1 R132H, the “fold improvement in potency compared to analog 70” value was 3 fold.

Consider `CCc1cccc(CC)c1-n1c(C=C(C)C)c(C(=O)N2C[C@H]3CC[C@@H](C2)N3)cc(-c2nc(-c3ccc(Cl)cc3)cs2)c1=O` [Compound 111, 5-((1R,5S)-3,8-Diazabicyclo[3.2.1]octane-3-carbonyl)-3-(4-(4-chlorophenyl)thiazol-2-yl)-1-(2,6-diethylphenyl)-6-(2-methylprop-1-en-1-yl)pyridin-2(1H)-one], for which the “PAMPA (10^−6 cm/s)” value in data set [1] is on record as 89 10^−6 cm/s.

As to `COc1ccc(OC)c(-n2c3c(cc(-c4ccc(-c5ccccc5)cc4)c2=O)C(=O)CC(C)(C)C3)c1` [Compound 24, 3-([1,1’-Biphenyl]-4-yl)-1-(2,5-dimethoxyphenyl)-7,7-dimethyl-7,8-dihydroquinoline-2,5(1H,6H)-dione], the “mIDH1 inhibitory activity” value on IDH1 R132H is listed as “complete loss in mIDH1 inhibitory activity”.

Compound `CC(c1ccccc1)n1c2c(cc(-c3nc(-c4ccc(Cl)cc4)cs3)c1=O)C(=O)CC(C)(C)C2` (stereo not drawn) [Compound 48, 3-(4-(4-Chlorophenyl)thiazol-2-yl)-7,7-dimethyl-1-(1-phenylethyl)-7,8-dihydroquinoline-2,5(1H,6H)-dione] displayed an IC50 against IDH1 R132H (IDH1 R132H IC50(μM) ± SD) of more than 38 µM. The inhibition at 38 µM on IDH1 R132C (read-out: IDH1 R132C % inhibition ± SD at 38 μM) is 34 ± 1%.

For `COc1ccc(OC)c(-n2c3c(cc(-c4nc(-c5ccccc5)cs4)c2=O)C(=O)CC(C)(C)C3)c1` [Compound 11, 1-(2,5-Dimethoxyphenyl)-7,7-dimethyl-3-(4-phenylthiazol-2-yl)-7,8-dihydroquinoline-2,5(1H,6H)-dione], the “mIDH1 inhibitory activity” value at IDH1 R132H is recorded as “essentially equipotent to 1 against R132H mIDH1”.

`CCc1ccc(Cl)cc1-n1c(C=C(C)C)c(C(=O)N2CCNCC2)cc(-c2nc(-c3ccc(Cl)cc3)cs2)c1=O` (single isomer, unassigned) [(−)-119] came in with an IC50 at IDH1 R132H (IDH1 R132H IC50(μM) ± SD) of 0.25 ± 0.04 µM.

Consider `CCc1ccc(OC)cc1-n1c(C=C(C)C)c(C(=O)N2CCNCC2)cc(-c2nc(-c3ccc(Cl)cc3)cs2)c1=O` (single isomer, unassigned) [(−)-118], for which the half-maximal inhibitory concentration (IC50) against IDH1 R132H (IDH1 R132H IC50(μM) ± SD) is 0.42 ± 0.05 µM.

For `CCOc1ccccc1-n1c2c(cc(-c3nc(-c4ccc(Cl)cc4)cs3)c1=O)C(=O)CC(C)(C)C2` [Compound 29, 3-(4-(4-Chlorophenyl)thiazol-2-yl)-1-(2-ethoxyphenyl)-7,7-dimethyl-7,8-dihydroquinoline-2,5(1H,6H)-dione], the IC50 against IDH1 R132H (IDH1 R132H IC50(μM) ± SD) was 0.51 ± 0.03 µM.

At IDH1 R132H (IDH1 R132H IC50(μM) ± SD), `COc1cc(C(=O)O)ccc1-n1c2c(cc(-c3nc(-c4ccc(Cl)cc4)cs3)c1=O)C(=O)CC(C)(C)C2` [Compound 57, 4-(3-(4-(4-Chlorophenyl)thiazol-2-yl)-7,7-dimethyl-2,5-dioxo-5,6,7,8-tetrahydroquinolin-1(2H)-yl)-3-methoxybenzoic acid] came in with an IC50 of more than 38 µM.

In the case of `CCc1cccc(CC)c1-n1c(C=C(C)C)c(C(=O)N2CCNC(=O)C2)cc(-c2nc(-c3ccc(Cl)cc3)cs2)c1=O` [Compound 105, 4-(5-(4-(4-Chlorophenyl)thiazol-2-yl)-1-(2,6-diethylphenyl)-2-(2-methylprop-1-en-1-yl)-6-oxo-1,6-dihydropyridine-3-carbonyl)piperazin-2-one], in data set [1], the “PAMPA (10^−6 cm/s)” value is 275 10^−6 cm/s.

As for `COc1ccc(OC)c(-n2c(C)ccc(-c3nc(-c4ccc(Cl)cc4)cs3)c2=O)c1` [Compound 3, 3-(4-(4-Chlorophenyl)thiazol-2-yl)-1-(2,5-dimethoxyphenyl)-6-methylpyridin-2(1H)-one], the “mIDH1 inhibitory activity” value on IDH1 R132H was “completely inactive”.

On to `COc1ccc(OC)c(-n2c3c(cc(-c4cccc(-c5ccc(Cl)cc5)n4)c2=O)C(=O)CC(C)(C)C3)c1` [Compound 25, 3-(6-(4-Chlorophenyl)pyridin-2-yl)-1-(2,5-dimethoxyphenyl)-7,7-dimethyl-7,8-dihydroquinoline-2,5(1H,6H)-dione], for which, on IDH1 R132H, the “mIDH1 inhibitory activity” value is reported as “retained some activity”.
